According to patent publication US11046716B2, “Beta-lactamase inhibitors” (priority 2015, dated 2021):

How the values were obtained:
[1] = molecular target: T1, AmpC (Enterobacter cloacae, UniProt P05364); test: β-lactamase enzyme inhibition assay, p99 AmpC (nitrocefin substrate); format: biochemical
T1 construct: made in house; host or cells: E. coli BL21(DE3)
How it was run: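 Compounds are mixed with purified, untagged recombinant β-lactamase and held 15 min at 37 °C. Substrate is then added. Absorbance is followed immediately, and percent inhibition per concentration gives the IC50.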

[2] = molecular target: T2, VIM-2 (Escherichia coli, UniProt Q5U7L7); test: β-lactamase enzyme inhibition assay, VIM-2 (nitrocefin substrate); format: biochemical; settings: Class B; nitrocefin substrate, 486 nm; read-out: VIM-2
T2 construct: made in house; host or cells: E. coli BL21(DE3)
How it was run: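 Nitrocefin hydrolysis (100 μM final, A486 read for 10 min) by purified VIM-2 after a 15-min, 37° C enzyme–inhibitor preincubation. IC50 is the concentration halving initial hydrolysis rate, derived from percent inhibition against no-inhibitor wells.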

[3] = system: E. cloacae expressing the Class C P99; test: Broth microdilution MIC assay with ceftazidime, E. cloacae P99; format: cell-based; settings: Fixed CAZ (ceftazidime) 4 μg/mL; E. cl. 144200 p99 AmpC
How it was run: (§1)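 CLSI broth microdilution in cation-adjusted Mueller Hinton broth measured growth of β-lactamase-expressing strains, grown 3-5 h beforehand. The β-lactam partner was held at 4 μg/ml final while test compound was titrated 2-fold from 16 to 0.125 μg/mL final. After 16-20 h at 37° C, the compound MIC was determined by eye.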

[4] = system: K. pneumoniae producing the Class D carbapenemase OXA-48; test: Broth microdilution MIC assay with meropenem, K. pneumoniae OXA-48; format: cell-based; settings: Fixed Mero (meropenem) 4 μg/mL; K. p. 11978 OXA-48
How it was run: as §1

[5] = system: K. pneumoniae expressing the Class A carbapenemase KPC-2; test: Broth microdilution MIC assay with meropenem, K. pneumoniae KPC-2; format: cell-based; settings: Fixed Mero (meropenem) 4 μg/mL; K. p. 156319 KPC-3
How it was run: as §1

[6] = molecular target: T3, SHV-5 (Klebsiella pneumoniae, UniProt P0A3M1); test: β-lactamase enzyme inhibition assay, SHV-5 (cefotaxime substrate); format: biochemical
T3 construct: made in house; host or cells: E. coli BL21(DE3)
T3 sequence (P0A3M1 22-286): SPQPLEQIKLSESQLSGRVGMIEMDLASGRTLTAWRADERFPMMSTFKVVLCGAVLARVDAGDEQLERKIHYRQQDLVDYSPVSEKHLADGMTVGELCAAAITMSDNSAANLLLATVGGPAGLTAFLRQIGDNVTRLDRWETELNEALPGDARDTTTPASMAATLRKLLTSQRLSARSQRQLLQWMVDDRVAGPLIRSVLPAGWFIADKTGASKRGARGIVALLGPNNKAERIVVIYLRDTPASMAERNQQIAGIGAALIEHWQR
How it was run: (§2)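 Compounds are mixed with purified, untagged recombinant β-lactamase and held 15 min at 37 °C. Substrate is then added: nitrocefin (100 μM final) for OXA-1, imipenem for KPC-2, cefotaxime for SHV-5. Absorbance is followed immediately, and percent inhibition per concentration gives the IC50.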

[7] = molecular target: OXA-48 (UniProt Q6XEC0); test: β-lactamase enzyme inhibition assay, Class D oxacillinase; format: biochemical; settings: read-out: OXA-48
[8] = molecular target: T4, KPC-2 (Klebsiella pneumoniae, UniProt Q9F663); test: β-lactamase enzyme inhibition assay, KPC-2 (imipenem substrate); format: biochemical; settings: Class A; imipenem substrate, 300 nm; read-out: KPC-2
T4 construct: made in house; host or cells: E. coli BL21(DE3)
T4 sequence (Q9F663 25-293, looked up): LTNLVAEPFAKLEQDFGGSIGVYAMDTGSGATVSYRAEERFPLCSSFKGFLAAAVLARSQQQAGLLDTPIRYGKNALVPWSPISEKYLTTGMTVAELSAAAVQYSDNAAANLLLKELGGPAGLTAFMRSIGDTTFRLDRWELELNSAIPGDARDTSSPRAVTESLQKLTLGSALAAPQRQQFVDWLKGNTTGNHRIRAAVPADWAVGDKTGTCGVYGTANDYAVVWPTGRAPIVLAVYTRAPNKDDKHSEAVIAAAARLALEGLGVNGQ
How it was run: as §2

[9] = system: K. pneumoniae expressing the class A carbapenemase KPC-2 and the class B carbapenemase VIM-4; test: Broth microdilution MIC assay with meropenem, K. pneumoniae KPC-2 and VIM-4; format: cell-based; settings: Fixed Mero (meropenem) 4 μg/mL; K. p. A-1797 KPC-2 VIM-4
How it was run: as §1

[10] = system: P. aeruginosa expressing the Class B carbapenemase VIM-2; test: Broth microdilution MIC assay with meropenem, P. aeruginosa VIM-2; format: cell-based; settings: Fixed Mero (meropenem) 4 μg/mL; P. aerug. 2775 VIM-2
How it was run: as §1

[11] = system: E. coli expressing the Class A Extended Spectrum Beta-Lactamase (ESBL) CTX-M-15; test: Broth microdilution MIC assay with ceftazidime, E. coli CTX-M-15; format: cell-based; settings: Fixed CAZ (ceftazidime) 4 μg/mL; E. coli ESBL4 CTX-M-15
How it was run: as §1

T1 sequence (P05364 21-381): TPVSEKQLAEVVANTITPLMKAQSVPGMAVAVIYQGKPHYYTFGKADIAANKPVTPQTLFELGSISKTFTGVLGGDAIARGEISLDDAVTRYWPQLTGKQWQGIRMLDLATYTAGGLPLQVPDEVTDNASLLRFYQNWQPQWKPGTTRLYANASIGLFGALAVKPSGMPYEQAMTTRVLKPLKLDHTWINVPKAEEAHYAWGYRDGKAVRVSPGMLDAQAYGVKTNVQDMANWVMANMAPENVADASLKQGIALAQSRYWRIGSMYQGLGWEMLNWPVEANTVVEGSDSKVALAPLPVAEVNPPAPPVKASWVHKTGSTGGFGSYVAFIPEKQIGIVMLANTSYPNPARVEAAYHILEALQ

O=C(Cn1nnc(C(=O)O)c1C(=O)O)N[C@H]1Cc2cccc(C(=O)O)c2OB1O [Example 16, (R)-1-(2-((8-carboxy-2-hydroxy-3,4-dihydro-2H-benzo[e][1,2]oxaborinin-3-yl)amino)-2-oxoethyl)-1H-1,2,3-triazole-4,5-dicarboxylic acid]
IC50 [1]: < 100 nM | IC50 [2]: 1000 to 10000 nM | MIC (μg/mL) of Exemplary Compounds in presence of fixed β-lactams: E. cl. 144200 p99 AmpC [3]: C (C represents an MIC of <1 μg/mL) | MIC (μg/mL) of Exemplary Compounds in presence of fixed β-lactams: K. p. 11978 OXA-48 [4]: B (B represents an MIC between 1 and 16 μg/mL inclusive) | MIC (μg/mL) of Exemplary Compounds in presence of fixed β-lactams: K. p. 156319 KPC-3 [5]: B (B represents an MIC between 1 and 16 μg/mL inclusive) | IC50 [6]: < 100 nM | IC50 [7]: < 100 nM | IC50 [8]: < 100 nM | MIC (μg/mL) of Exemplary Compounds in presence of fixed β-lactams: K. p. A-1797 KPC-2 VIM-4 [9]: B (B represents an MIC between 1 and 16 μg/mL inclusive) | MIC (μg/mL) of Exemplary Compounds in presence of fixed β-lactams: P. aerug. 2775 VIM-2 [10]: B (B represents an MIC between 1 and 16 μg/mL inclusive) | MIC (μg/mL) of Exemplary Compounds in presence of fixed β-lactams: E. coli ESBL4 CTX-M-15 [11]: B (B represents an MIC between 1 and 16 μg/mL inclusive)

NCCS(=O)(=O)NCc1cn(CC(=O)N[C@H]2Cc3cccc(C(=O)O)c3OB2O)nn1 [Example 69, (R)-3-(2-(4-(((2-aminoethyl)sulfonamido)methyl)-1H-1,2,3-triazol-1-yl)acetamido)-2-hydroxy-3,4-dihydro-2H-benzo[e][1,2]oxaborinine-8-carboxylic acid]
IC50 [1]: < 100 nM | IC50 [2]: 100 to 1000 nM | MIC (μg/mL) of Exemplary Compounds in presence of fixed β-lactams: E. cl. 144200 p99 AmpC [3]: C (C represents an MIC of <1 μg/mL) | MIC (μg/mL) of Exemplary Compounds in presence of fixed β-lactams: K. p. 11978 OXA-48 [4]: B (B represents an MIC between 1 and 16 μg/mL inclusive) | MIC (μg/mL) of Exemplary Compounds in presence of fixed β-lactams: K. p. 156319 KPC-3 [5]: B (B represents an MIC between 1 and 16 μg/mL inclusive) | IC50 [6]: < 100 nM | IC50 [7]: 1000 to 10000 nM | IC50 [8]: < 100 nM | MIC (μg/mL) of Exemplary Compounds in presence of fixed β-lactams: K. p. A-1797 KPC-2 VIM-4 [9]: B (B represents an MIC between 1 and 16 μg/mL inclusive) | MIC (μg/mL) of Exemplary Compounds in presence of fixed β-lactams: P. aerug. 2775 VIM-2 [10]: C (C represents an MIC of <1 μg/mL) | MIC (μg/mL) of Exemplary Compounds in presence of fixed β-lactams: E. coli ESBL4 CTX-M-15 [11]: C (C represents an MIC of <1 μg/mL)

NCc1ccc(-c2cn(CC(=O)N[C@H]3Cc4cccc(C(=O)O)c4OB3O)nn2)cn1 [Example 75, (R)-3-(2-(4-(6-(aminomethyl)pyridin-3-yl)-1H-1,2,3-triazol-1-yl)acetamido)-2-hydroxy-3,4-dihydro-2H-benzo[e][1,2]oxaborinine-8-carboxylic acid]
IC50 [1]: < 100 nM | IC50 [2]: 100 to 1000 nM | MIC (μg/mL) of Exemplary Compounds in presence of fixed β-lactams: E. cl. 144200 p99 AmpC [3]: C (C represents an MIC of <1 μg/mL) | MIC (μg/mL) of Exemplary Compounds in presence of fixed β-lactams: K. p. 11978 OXA-48 [4]: B (B represents an MIC between 1 and 16 μg/mL inclusive) | MIC (μg/mL) of Exemplary Compounds in presence of fixed β-lactams: K. p. 156319 KPC-3 [5]: C (C represents an MIC of <1 μg/mL) | IC50 [6]: < 100 nM | IC50 [7]: 100 to 1000 nM | IC50 [8]: 100 to 1000 nM | MIC (μg/mL) of Exemplary Compounds in presence of fixed β-lactams: K. p. A-1797 KPC-2 VIM-4 [9]: B (B represents an MIC between 1 and 16 μg/mL inclusive) | MIC (μg/mL) of Exemplary Compounds in presence of fixed β-lactams: P. aerug. 2775 VIM-2 [10]: B (B represents an MIC between 1 and 16 μg/mL inclusive) | MIC (μg/mL) of Exemplary Compounds in presence of fixed β-lactams: E. coli ESBL4 CTX-M-15 [11]: C (C represents an MIC of <1 μg/mL)

O=C(Cn1cnnn1)N[C@H]1Cc2cccc(C(=O)O)c2OB1O [Example 97, (R)-3-(2-(1H-tetrazol-1-yl)acetamido)-2-hydroxy-3,4-dihydro-2H-benzo[e][1,2]oxaborinine-8-carboxylic acid]
IC50 [1]: < 100 nM | IC50 [2]: 100 to 1000 nM | MIC (μg/mL) of Exemplary Compounds in presence of fixed β-lactams: E. cl. 144200 p99 AmpC [3]: C (C represents an MIC of <1 μg/mL) | MIC (μg/mL) of Exemplary Compounds in presence of fixed β-lactams: K. p. 11978 OXA-48 [4]: C (C represents an MIC of <1 μg/mL) | MIC (μg/mL) of Exemplary Compounds in presence of fixed β-lactams: K. p. 156319 KPC-3 [5]: C (C represents an MIC of <1 μg/mL) | IC50 [6]: < 100 nM | IC50 [7]: < 100 nM | IC50 [8]: < 100 nM | MIC (μg/mL) of Exemplary Compounds in presence of fixed β-lactams: K. p. A-1797 KPC-2 VIM-4 [9]: B (B represents an MIC between 1 and 16 μg/mL inclusive) | MIC (μg/mL) of Exemplary Compounds in presence of fixed β-lactams: P. aerug. 2775 VIM-2 [10]: B (B represents an MIC between 1 and 16 μg/mL inclusive) | MIC (μg/mL) of Exemplary Compounds in presence of fixed β-lactams: E. coli ESBL4 CTX-M-15 [11]: C (C represents an MIC of <1 μg/mL)

NCCSCc1cn(CC(=O)N[C@H]2Cc3cccc(C(=O)O)c3OB2O)nn1 [Example 63, (R)-3-(2-(4-(((2-aminoethyl)thio)methyl)-1H-1,2,3-triazol-1-yl)acetamido)-2-hydroxy-3,4-dihydro-2H-benzo[e][1,2]oxaborinine-8-carboxylic acid]
IC50 [1]: < 100 nM | IC50 [2]: 100 to 1000 nM | MIC (μg/mL) of Exemplary Compounds in presence of fixed β-lactams: E. cl. 144200 p99 AmpC [3]: C (C represents an MIC of <1 μg/mL) | MIC (μg/mL) of Exemplary Compounds in presence of fixed β-lactams: K. p. 11978 OXA-48 [4]: B (B represents an MIC between 1 and 16 μg/mL inclusive) | MIC (μg/mL) of Exemplary Compounds in presence of fixed β-lactams: K. p. 156319 KPC-3 [5]: C (C represents an MIC of <1 μg/mL) | IC50 [6]: < 100 nM | IC50 [7]: 100 to 1000 nM | IC50 [8]: < 100 nM | MIC (μg/mL) of Exemplary Compounds in presence of fixed β-lactams: K. p. A-1797 KPC-2 VIM-4 [9]: B (B represents an MIC between 1 and 16 μg/mL inclusive) | MIC (μg/mL) of Exemplary Compounds in presence of fixed β-lactams: P. aerug. 2775 VIM-2 [10]: C (C represents an MIC of <1 μg/mL) | MIC (μg/mL) of Exemplary Compounds in presence of fixed β-lactams: E. coli ESBL4 CTX-M-15 [11]: C (C represents an MIC of <1 μg/mL)

NCCONC(=O)c1cn(CC(=O)N[C@H]2Cc3cccc(C(=O)O)c3OB2O)nn1 [Example 61, (R)-3-(2-(4-((2-aminoethoxy)carbamoyl)-1H-1,2,3-triazol-1-yl)acetamido)-2-hydroxy-3,4-dihydro-2H-benzo[e][1,2]oxaborinine-8-carboxylic acid]
IC50 [1]: < 100 nM | IC50 [2]: 100 to 1000 nM | MIC (μg/mL) of Exemplary Compounds in presence of fixed β-lactams: E. cl. 144200 p99 AmpC [3]: C (C represents an MIC of <1 μg/mL) | MIC (μg/mL) of Exemplary Compounds in presence of fixed β-lactams: K. p. 11978 OXA-48 [4]: B (B represents an MIC between 1 and 16 μg/mL inclusive) | MIC (μg/mL) of Exemplary Compounds in presence of fixed β-lactams: K. p. 156319 KPC-3 [5]: B (B represents an MIC between 1 and 16 μg/mL inclusive) | IC50 [6]: < 100 nM | IC50 [7]: 100 to 1000 nM | IC50 [8]: < 100 nM | MIC (μg/mL) of Exemplary Compounds in presence of fixed β-lactams: K. p. A-1797 KPC-2 VIM-4 [9]: B (B represents an MIC between 1 and 16 μg/mL inclusive) | MIC (μg/mL) of Exemplary Compounds in presence of fixed β-lactams: P. aerug. 2775 VIM-2 [10]: C (C represents an MIC of <1 μg/mL) | MIC (μg/mL) of Exemplary Compounds in presence of fixed β-lactams: E. coli ESBL4 CTX-M-15 [11]: C (C represents an MIC of <1 μg/mL)
